PubChem BioAssay (NCI)
Values joined by “and” are separate entries in the source; they are usually repeats but may differ in a detail not shown here. Equal values may be shown once.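 Where inhibition never reached the appropriate level, the endpoint shown equals the highest concentration tested. Otherwise, values were interpolated linearly from a five-concentration, 48-hour dose response in 96-well plates. GI50 is the concentration that inhibits growth by half. Definition used: TGI = concentration required for complete inhibition of growth.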

Experiments:
Experiment in all cases: NCI-60 cell line screen, 48 h
HCT-15 colon = system: HCT-15 colon
TK-10 renal = system: TK-10 renal
UACC-257 melanoma = system: UACC-257 melanoma
OVCAR-5 ovarian = system: OVCAR-5 ovarian
HOP-62 NSCLC = system: HOP-62 NSCLC
LOX IMVI melanoma = system: LOX IMVI melanoma
A498 renal = system: A498 renal
SNB-19 CNS = system: SNB-19 CNS
SK-OV-3 ovarian = system: SK-OV-3 ovarian
RPMI-8226 leukemia = system: RPMI-8226 leukemia
SK-MEL-5 melanoma = system: SK-MEL-5 melanoma
NCI/ADR-RES ovarian = system: NCI/ADR-RES ovarian
T-47D breast = system: T-47D breast
SF-268 CNS = system: SF-268 CNS
HOP-92 NSCLC = system: HOP-92 NSCLC
SW-620 colon = system: SW-620 colon
DU-145 prostate = system: DU-145 prostate
NCI-H226 lung = system: NCI-H226 lung
MDA-N = system: MDA-N
A549 NSCLC = system: A549 NSCLC
SF-539 CNS = system: SF-539 CNS
KM12 colon = system: KM12 colon
MDA-MB-435 = system: MDA-MB-435
PC-3 prostate = system: PC-3 prostate
OVCAR-8 ovarian = system: OVCAR-8 ovarian
MCF7 breast = system: MCF7 breast
MALME-3M melanoma = system: MALME-3M melanoma
HS 578T breast = system: HS 578T breast
CAKI-1 renal = system: CAKI-1 renal
HCC-2998 colon = system: HCC-2998 colon
SNB-75 CNS = system: SNB-75 CNS
NCI-H460 lung = system: NCI-H460 lung
HCT-116 colon = system: HCT-116 colon
NCI-H23 lung = system: NCI-H23 lung
CCRF-CEM leukemia = system: CCRF-CEM leukemia
M14 melanoma = system: M14 melanoma
HT29 colon = system: HT29 colon
SK-MEL-28 melanoma = system: SK-MEL-28 melanoma
COLO 205 colon = system: COLO 205 colon
OVCAR-4 ovarian = system: OVCAR-4 ovarian
RXF 393 renal = system: RXF 393 renal
UO-31 renal = system: UO-31 renal
OVCAR-3 ovarian = system: OVCAR-3 ovarian
SF-295 CNS = system: SF-295 CNS
ACHN renal = system: ACHN renal
IGROV1 ovarian = system: IGROV1 ovarian
786-0 renal = system: 786-0 renal
UACC-62 melanoma = system: UACC-62 melanoma
SK-MEL-2 melanoma = system: SK-MEL-2 melanoma
K-562 leukemia = system: K-562 leukemia
NCI-H522 lung = system: NCI-H522 lung
EKVX NSCLC = system: EKVX NSCLC
HL-60(TB) leukemia = system: HL-60(TB) leukemia
SN12C renal = system: SN12C renal
U251 CNS = system: U251 CNS
MDA-MB-231 breast = system: MDA-MB-231 breast

Compound: Cn1cnc(C(=N)[Se])c1N
- TGI (HCT-15 colon): > 100 µM
- TGI (TK-10 renal): > 24.8 µM
- TGI (UACC-257 melanoma): > 100 µM
- TGI (OVCAR-5 ovarian): > 100 µM
- TGI (HOP-62 NSCLC): > 23.4 µM
- TGI (LOX IMVI melanoma): > 100 µM
- TGI (A498 renal): > 28.6 µM
- TGI (SNB-19 CNS): > 28 µM
- TGI (SK-OV-3 ovarian): 2.3 µM
- TGI (RPMI-8226 leukemia): 6.95 µM
- TGI (SK-MEL-5 melanoma): > 100 µM
- TGI (NCI/ADR-RES ovarian): 3.15 µM
- TGI (T-47D breast): > 100 µM
- TGI (SF-268 CNS): 4.94 µM
- TGI (HOP-92 NSCLC): > 100 µM
- TGI (SW-620 colon): > 100 µM
- TGI (DU-145 prostate): > 100 µM
- TGI (NCI-H226 lung): 12.5 µM
- TGI (MDA-N): > 100 µM
- TGI (A549 NSCLC): > 100 µM
- TGI (SF-539 CNS): 4.18 µM
- TGI (KM12 colon): > 28.8 µM
- TGI (MDA-MB-435): > 100 µM
- TGI (PC-3 prostate): 14.9 µM
- TGI (OVCAR-8 ovarian): 3.31 µM
- TGI (MCF7 breast): > 29.3 µM
- TGI (MALME-3M melanoma): 8.89 µM
- TGI (HS 578T breast): > 26.4 µM
- TGI (CAKI-1 renal): 60.9 µM
- TGI (HCC-2998 colon): > 100 µM
- TGI (SNB-75 CNS): 4.38 µM
- TGI (NCI-H460 lung): 1.55 µM
- TGI (HCT-116 colon): > 100 µM
- TGI (NCI-H23 lung): > 27.1 µM
- TGI (CCRF-CEM leukemia): 6.26 µM
- TGI (M14 melanoma): > 100 µM
- TGI (HT29 colon): > 100 µM
- TGI (SK-MEL-28 melanoma): > 100 µM

Compound: CCCCCCCCCC[C@H](O)[C@H]1CC[C@@H]([C@@H](O)CC[C@H](O)[C@@H]2CCC(CCCCCCC[C@@H](O)CC3=C[C@H](C)OC3=O)O2)O1 (some centres not stated)
- GI50 (HCT-15 colon): 7.02 µM
- TGI (HCT-15 colon): 30.8 µM
- TGI (COLO 205 colon): 4.38 µM and 6 µM
- GI50 (TK-10 renal): 4.26 µM
- TGI (TK-10 renal): 20.9 µM
- TGI (OVCAR-4 ovarian): 19.6 µM
- GI50 (UACC-257 melanoma): 0.921 µM
- TGI (UACC-257 melanoma): 4.47 µM and 13.8 µM
- TGI (RXF 393 renal): 19.8 µM
- GI50 (OVCAR-5 ovarian): 12 µM
- TGI (OVCAR-5 ovarian): 28.4 µM
- GI50 (HOP-62 NSCLC): 4.55 µM
- TGI (HOP-62 NSCLC): 3.28 µM and 19.4 µM
- GI50 (UO-31 renal): 2.59 µM
- TGI (UO-31 renal): 2.13 µM and 10.9 µM
- GI50 (LOX IMVI melanoma): 0.0764 µM
- TGI (LOX IMVI melanoma): 2.18 µM and 10 µM
- TGI (SNB-19 CNS): 4.71 µM and 19.6 µM
- TGI (RPMI-8226 leukemia): 4.03 µM
- GI50 (OVCAR-3 ovarian): 3.29 µM
- TGI (OVCAR-3 ovarian): 2.75 µM and 14.2 µM
- TGI (SK-MEL-5 melanoma): 3.48 µM and 3.24 µM
- GI50 (NCI/ADR-RES ovarian): 2.63 µM
- TGI (NCI/ADR-RES ovarian): 4.08 µM and 19.6 µM
- GI50 (T-47D breast): 1.87 µM
- TGI (T-47D breast): 17.6 µM
- GI50 (SF-268 CNS): 8.17 µM
- GI50 (SF-295 CNS): 1.22 µM
- TGI (SF-295 CNS): 15 µM
- GI50 (HOP-92 NSCLC): 1.99 µM
- TGI (HOP-92 NSCLC): 4.34 µM and 16 µM
- GI50 (SW-620 colon): 4.8 µM
- GI50 (NCI-H226 lung): 8.54 µM
- TGI (NCI-H226 lung): 6.43 µM and 36 µM
- GI50 (MDA-N): 2.1 µM
- TGI (MDA-N): 16 µM
- GI50 (ACHN renal): 2.15 µM
- TGI (ACHN renal): 4.47 µM and 15.7 µM
- GI50 (A549 NSCLC): 2.89 µM
- TGI (A549 NSCLC): 18.5 µM
- GI50 (SF-539 CNS): 4.33 µM
- TGI (SF-539 CNS): 3.86 µM and 25.8 µM
- GI50 (KM12 colon): 4.25 µM
- GI50 (MDA-MB-435): 5.07 µM
- GI50 (IGROV1 ovarian): 5.17 µM
- TGI (IGROV1 ovarian): 4.99 µM and 21.1 µM
- GI50 (PC-3 prostate): 4.66 µM
- TGI (PC-3 prostate): 3.44 µM and 17.2 µM
- GI50 (OVCAR-8 ovarian): 4.09 µM
- GI50 (MCF7 breast): 3 µM
- TGI (MCF7 breast): 9.6 µM and 22.9 µM
- GI50 (786-0 renal): 4.9 µM
- TGI (786-0 renal): 3.64 µM and 20.7 µM
- TGI (MALME-3M melanoma): 12.3 µM
- TGI (HS 578T breast): 4.86 µM
- TGI (UACC-62 melanoma): 3.13 µM
- GI50 (CAKI-1 renal): 5.26 µM
- TGI (CAKI-1 renal): 23.8 µM
- TGI (HCC-2998 colon): 19 µM
- GI50 (SK-MEL-2 melanoma): 8.82 µM
- TGI (SK-MEL-2 melanoma): 2.94 µM and 24.6 µM
- GI50 (SNB-75 CNS): 9.29 µM
- TGI (SNB-75 CNS): 9.56 µM and 28.1 µM
- TGI (K-562 leukemia): 19.2 µM
- TGI (NCI-H522 lung): 18 µM
- GI50 (EKVX NSCLC): 5.17 µM
- TGI (EKVX NSCLC): 6.86 µM and 22.4 µM
- GI50 (NCI-H460 lung): 1.15 µM
- TGI (NCI-H460 lung): 17.2 µM
- TGI (HL-60(TB) leukemia): 4.95 µM
- GI50 (SN12C renal): 8.18 µM
- TGI (SN12C renal): 8.23 µM and 30.6 µM
- GI50 (U251 CNS): 8.25 µM
- GI50 (HCT-116 colon): 0.507 µM
- TGI (HCT-116 colon): 2.65 µM and 20.7 µM
- TGI (NCI-H23 lung): 3.68 µM and 19.2 µM
- GI50 (CCRF-CEM leukemia): 2.08 µM
- TGI (CCRF-CEM leukemia): 12.3 µM
- GI50 (M14 melanoma): 2.73 µM
- TGI (M14 melanoma): 2.93 µM and 9.75 µM
- TGI (MDA-MB-231 breast): 7.03 µM and 44.2 µM
- TGI (HT29 colon): 3.5 µM
- GI50 (SK-MEL-28 melanoma): 7.62 µM
- TGI (SK-MEL-28 melanoma): 5.44 µM and 39 µM
